From patent publication US10682371B2, “Small molecule conjugates specifically activated in tumor microenvironment for targeting and use thereof” (priority 2014, dated 2020)
*1 amine or outer side, *2 acyl side, *3 side chain or, on linkers, in order; H or OH if unused. Where a SMILES comes first, the peptide text is derived from it. [ ]: non-standard residue; d: D form. The star is where a group is joined. ξ: configuration not given here. Doxorubicin(3'-N) = COc1cccc2c1C(=O)c1c(O)c3c(c(O)c1C2=O)C[C@@](O)(C(=O)CO)C[C@@H]3O[C@H]1C[C@H](N*)[C@H](O)[C@H](C)O1; Dolaproine(all-ξ) = COC(C(C)C(=O)[*:2])C1CCCN1[*:1]; Dolaproine = CO[C@@H]([C@@H]1CCCN1)[C@@H](C)C(=O)O; Dil = CC[C@H](C)[C@H](NC)[C@@H](CC(=O)O)OC; X1 = CCC(C)C(C(CC(=O)[*:2])OC)N(C)[*:1]; PABC = O=C(OCc1ccc(N[*:1])cc1)[*:2]; X3 = C[C@@H](N*)[C@@H](O)c1ccccc1; MeOCH2CH2OCH2CO = COCCOCC(=O)*; NMeV = CN[CH](C(=O)O)C(C)C; X2 = CC(N*)C(O)c1ccccc1; Cbz = O=C(OCc1ccccc1)*

Experiments:
HEK293 cells = assay type: cell-based
Procedure: Toxicity detection method: a standard universal test program was used to perform the in vitro cytotoxicity test. 2500 HEK293 cells were cultured in a 96-well plate, and allowed to grow overnight. Cytotoxic compounds and their corresponding conjugated compounds were added into each well in different concentrations, cultivated with the cells at 37° C. for 72 hours, and then treated with MTT reagents. OD changes were read. The approximate multiples of the toxicity change were obtained by comparing the IC50 of the modified compounds to their corresponding cytotoxic compounds.

asparagine endopeptidase = molecular target: T1, asparagine endopeptidase (Homo sapiens, UniProt Q99538)
T1 sequence (Q99538 26-323 limits assumed): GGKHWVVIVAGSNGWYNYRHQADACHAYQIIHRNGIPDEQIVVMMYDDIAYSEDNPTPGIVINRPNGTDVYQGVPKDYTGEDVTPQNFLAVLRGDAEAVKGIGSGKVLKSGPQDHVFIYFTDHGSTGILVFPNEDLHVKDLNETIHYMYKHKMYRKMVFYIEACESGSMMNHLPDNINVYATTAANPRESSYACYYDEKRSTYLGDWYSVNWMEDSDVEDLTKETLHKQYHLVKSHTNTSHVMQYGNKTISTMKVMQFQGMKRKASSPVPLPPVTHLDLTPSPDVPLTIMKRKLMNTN
Procedure: Reduction of reactant and increase of product were detected by HPLC, thereby comparing the activation efficiency of these compounds.
(§1) When R1 is 2-(2-Methoxyethoxy)Acetyl, and R3 is Ala, activation study and efficacy study were carried out by using compounds having different cleavable linker. The study methods are identical to those in Examples 10, 11 and 12. The in vitro activation efficiency was tested by asparagine endopeptidase and the tumor inhibition rate was tested by using human breast cancer MDA-MB231 model.

[1] = system: Human breast cancer MDA-MB231 cells; assay type: in vivo, nude mice; conditions: for tumor inhibition rate (%): mouse, in vivo
Procedure: 1) Human breast cancer MDA-MB231 cells were purchased from American type culture collection (ATCC) and identified according the specification provided by ATCC. Cells were cultivated in […] (DMEM culture medium) containing 10% fetal bovine serum at 37° C. and 5% CO2. The cells were passaged for every three days and cells within the 15th passage were used.
2) Production of tumor. 5×10^6 MDA-MB231 cells were subcutaneously injected to the back of the nude mice. Mice were randomly grouped after the tumor reached at least 100 mm^3. Then treatment began and the day on which the treatment began was day 1.
3) Course of treatment. […] The drugs were administered once weekly for four weeks.
as §1, with “model. […]” for “model.”

[2] = system: Human breast cancer MDA-MB435 tumor tissue homogenate; assay type: biochemical; conditions: Human breast cancer MDA-MB435 tumor tissue homogenate (30 μg/ml); 1 mg/ml compound
Procedure: (§2) At 37 °C, sample compounds were added into 100 μg acidized tumor tissue homogenates (pH6.0) in a concentration of 1 mg/ml.
(§3) At 37 °C, sample compounds were added into 100 μg acidized human breast cancer (MDA-MB435) tumor tissue homogenates (pH6.0) in a concentration of 1 mg/ml.
(§4) […], sample compounds were added into 100 μg acidized tumor tissue homogenates (pH6.0) in a concentration of 1 mg/ml.
as §3
(§5) At 37 °C, sample compounds were added into 100 μg acidized tumor tissue homogenates in a concentration of 1 mg/ml.
(§6) In the experiments, at 37 °C, compounds were added into proteases in 100 μg acidized tumor tissue homogenates in a concentration of 1 mg/ml. […] Meanwhile certain compounds produced in the screening were compared and their activation efficiency in same tissue was analyzed.
(§7) At 37° C., compounds were added into proteases in 100 μg acidized tumor tissue homogenates in a concentration of 1 mg/ml.

Human heart = assay type: biochemical; conditions: Human heart homogenate; 1 mg/ml compound
[3] = system: Human chronic leukemia K562 tumor tissue homogenate; assay type: biochemical; conditions: Human chronic leukemia K562 tumor tissue homogenate (30 μg/ml); 1 mg/ml compound
Procedure: as §2, §4, §5, §6, §7

[4] = system: Human colon cancer HT-29 tumor tissue homogenate; assay type: biochemical; conditions: Human colon cancer HT-29 tumor tissue homogenate (30 μg/ml); 1 mg/ml compound
Procedure: as §2, §4, §5, §6, §7

[5] = system: Human liver cancer Hepg2 tumor tissue homogenate; assay type: biochemical; conditions: Human liver cancer Hepg2 tumor tissue homogenate (30 μg/ml); 1 mg/ml compound
Procedure: as §2, §4, §5, §6, §7

[6] = system: Human non-small cell lung cancer A549 tumor tissue homogenate; assay type: biochemical; conditions: Human non-small cell lung cancer A549 tumor tissue homogenate (30 μg/ml); 1 mg/ml compound
Procedure: as §2, §4, §5, §6, §7

[7] = system: Human pancreatic cancer Panc-1 tumor tissue homogenate; assay type: biochemical; conditions: Human pancreatic cancer Panc-1 tumor tissue homogenate (30 μg/ml); 1 mg/ml compound
Procedure: as §2, §4, §5, §6, §7

[8] = system: Human renal cancer OS-RC-2 tumor tissue homogenate; assay type: biochemical; conditions: Human renal cancer OS-RC-2 tumor tissue homogenate (30 μg/ml); 1 mg/ml compound
Procedure: as §2, §4, §5, §6, §7

D121 lung tumor cells = assay type: in vivo, C57 mice
Procedure: 1) D121 lung tumor cells were purchased from ATCC. Cells were cultivated in DMEM culture solution containing 10% fetal bovine serum at 37° C. and 5% CO2. The cells were passaged for every three days and cells within the 15th passage were used.
(§8) 2) Tumor immunization. 5×10^5 D121 lung cancer cells (purchased from ATCC) which were killed by irradiation were intraperitoneally injected to mice. The mice were injected for 3 times, once every two weeks. After immunization, mice were injected with tumor cells and the drugs were administered weekly for 4 weeks.
3) Production of tumor. At day 32, 10^6 live lung tumor cells were subcutaneously injected to the back of the C57 mice immunized by tumor. Treatment began when the tumor grew to 0.3-0.4 cm.
as §8, with “4 weeks. In table 16 below the immune group was immuned with D121 lung tumor cells and the group without dead D121 lung tumor cells was injected with physiological saline as controls.” for “4 weeks.”
3) Production of tumor. After immunization (4 weeks later), 10^6 live lung tumor cells were subcutaneously injected to the back of the C57 mice immunized by tumor. Treatment began when the tumor grew to 0.3-0.4 cm. Tumor size (mm^3) were noted and tumor inhibition rates were calculated.
as §8, with “4 weeks. In the table below the immune group was immuned with D121 lung tumor cells and the group without dead D121 lung tumor cells was injected with physiological saline as controls.” for “4 weeks.”
3) Production of tumor. At day 32, 10^6 live D121 lung tumor cells were subcutaneously injected to the back of the C57 mice immunized by tumor. Treatment began when the tumor grew to 0.3-0.4 cm.
1) D121 lung tumor cells were purposed from ATCC. Cells were cultivated in DMEM culture solution containing 10% fetal bovine serum at 37° C. and 5% CO2. The cells were passaged for every three days and cells within the 15th passage were used.

tumor CD8+ T cells = assay type: in vivo, C57 mice; conditions: D121 immunized C57 mice, 13.2 μmol/kg; ratio of CD8 positive cells in CD45 positive cells of tumor
Procedure: (§9) 4) Analysis on tumor CD8+ T cells. The tumor tissue was homogenated and individual cells in the tumor were filtered, separated and washed by buffer twice, then cultivated with the leucocyte common antigen CD45-PE and CD8-FITC marked antibodies for 1 hour at ambient temperature. The cells were washed by phosphate buffer containing 1% fetal bovine serum twice and then analyzed for the ratio of the T lymphocyte antigen (CD8) positive cells in the leucocyte common antigen (CD45) positive cells by flow cytometry.
as §9, with “CD45-PE and T-lymphocyte antigen CD8-FITC marked” for “CD45-PE and CD8-FITC marked”, “flow cytometry. Increasement of the ratio indicates increased T lymphocyte cells and thus the animal immunity against the tumor was improved.” for “flow cytometry.”
as §9, with “cytometry. Increasement of the ratio indicates increased T lymphocyte cells and thus the animal immunity against the tumor was improved.” for “cytometry.”

CC[C@H](C)[C@@H]([C@@H](CC(=O)N1CCC[C@H]1[C@H](OC)[C@@H](C)C(=O)N[C@H](C)[C@@H](O)c1ccccc1)OC)N(C)C(=O)[C@@H](NC(=O)[C@H](C(C)C)N(C)C(=O)OCc1ccc(NC(=O)[C@H](CC(N)=O)NC(=O)[C@H](C)NC(=O)[C@H](C)NC(C)=O)cc1)C(C)C [AC-AAN-PABC-MMAE] (Ac-AAN[PABC][NMeV]V[Dil][Dolaproine]-X3)
Cytoxicity reduced (Multiples) (HEK293 cells): 15.5 Multiples
Cleaving efficiency (asparagine endopeptidase): 3.4%
tumor inhibition rate (%) [1]: 16.7%

CC[C@H](C)[C@@H]([C@@H](CC(=O)N1CCC[C@H]1[C@H](OC)[C@@H](C)C(=O)N[C@H](C)[C@@H](O)c1ccccc1)OC)N(C)C(=O)[C@@H](NC(=O)[C@H](C(C)C)N(C)C(=O)OCc1ccc(NC(=O)[C@H](CC(N)=O)NC(=O)[C@H](C)NC(=O)[C@H](C)NC(=O)OCc2ccccc2)cc1)C(C)C [CBZ-AAN-PABC-MMAE] (Cbz-AAN[PABC][NMeV]V[Dil][Dolaproine]-X3)
Cytoxicity reduced (Multiples) (HEK293 cells): 8.3 Multiples
Cleaving efficiency (asparagine endopeptidase): 2.6%
tumor inhibition rate (%) [1]: 9.7%

COCCOCC(=O)N[C@H](C(=O)N[C@@H](C)C(=O)N[C@@H](CC(N)=O)C(=O)Nc1ccc(COC(=O)N[C@H]2C[C@H](O[C@H]3C[C@](O)(C(C)=O)Cc4c(O)c5c(c(O)c43)C(=O)c3c(OC)cccc3C5=O)O[C@@H](C)[C@H]2O)cc1)C(C)O (stereo partly drawn) [Compound S4, 4-N—(N—(N—(N-2-(2-methoxyethoxy)acetyl-L-threonyl)-L-alanyl)-L-asparaginyl)-amino benzyl alcohol-daunorubicin-carbamate]
Cytoxicity reduced (Multiple) (HEK293 cells; HEK293, 72 hours, MTT, IC50 of modified compound compared to its corresponding cytotoxic compound, approximate multiples): 345 Multiple
Activation Efficiencies (%) [2]: 83.5%
Activation Efficiencies (%) (Human heart): 2.8%
Activation Efficiencies (%) [3]: 64.5%
Activation Efficiencies (%) [4]: 83.5%
Activation Efficiencies (%) [5]: 67.3%
Activation Efficiencies (%) [6]: 64.5%
Activation Efficiencies (%) [7]: 67.3%
Activation Efficiencies (%) [8]: 78.5%
Size of tumor (mm^3) Day 10 ([1]; MDA-MB231, nude mice, IV 13.2 μmol/kg once weekly for four weeks, Day 10): 95.56 ± 57.54 mm^3
Size of tumor (mm^3) Day 24 ([1]; MDA-MB231, nude mice, IV 13.2 μmol/kg once weekly for four weeks, Day 24): 64.68 ± 43.56 mm^3
Effect on tumor growth, in words ([1]; compared to control, camptothecin, capecitabine and daunorubicin groups): strong inhibitory effect on tumor growth
Size of tumor (mm^3) Day 18 (D121 lung tumor cells; D121 immunized C57 mice, 13.2 μmol/kg weekly, PDL1 antibody 5 μg/kg where combined, Day 18): 316.78 ± 109.98 mm^3
Treatment effects on C57 mice, in words (D121 lung tumor cells; compared to the control group and the other treatment groups): greatly improved
CD8: CD45 (%) (tumor CD8+ T cells): 16.8%

CCC(C)C(C(CC(=O)N1CCCC1C(OC)C(C)C(=O)NC(C)C(O)c1ccccc1)OC)N(C)C(=O)C(NC(=O)C(C(C)C)N(C)C(=O)OCc1ccc(NC(=O)C(CC(N)=O)NC(=O)C(C)NC(=O)C(C)NC(=O)COCCOC)cc1)C(C)C (stereo not drawn) [PEG-AAN-PABC-MMAE] (MeOCH2CH2OCH2CO-AAN[PABC][NMeV]V[X1][Dolaproine(all-ξ)]-X2; configuration not given here)
Cytoxicity reduced (Multiples) (HEK293 cells): 22 Multiples
Cleaving efficiency (asparagine endopeptidase): 14.4%
tumor inhibition rate (%) [1]: 34.4%

COCCOCC(=O)N[C@@H](C)C(=O)N[C@@H](C)C(=O)N[C@@H](CC(N)=O)C(=O)N[C@@H](CC(C)C)C(=O)N[C@H]1C[C@H](O[C@H]2C[C@](O)(C(=O)CO)Cc3c(O)c4c(c(O)c32)C(=O)c2c(OC)cccc2C4=O)O[C@@H](C)[C@H]1O [PEG-AANL-DOX] (MeOCH2CH2OCH2CO-AANL-{Doxorubicin(3'-N)})
Cytoxicity reduced (Multiples) (HEK293 cells): 110.2 Multiples
Cleaving efficiency (asparagine endopeptidase): 66.5%
tumor inhibition rate (%) [1]: 60.3%
